According to ChEMBL document CHEMBL1123315, “Total chemical synthesis and antitumor evaluation of the 9-aza analogue of N-(trifluoroacetyl)-4-demethoxydaunomycin” (1986):
The source made the active and inactive calls. No cut-off for these calls is given here.

What was measured:
Mus musculus [1] = assay: Compound was tested intraperitoneally against P388 acute lymphocytic leukemia in mice; NA means inactive; type: functional, organism-based
Mus musculus [2] = assay: Compound was tested intraperitoneally against P388 acute lymphocytic leukemia in mice at a dose 0.75 mg/kg; type: functional; settings: route intraperitoneal
Mus musculus [3] = assay: Compound was tested intraperitoneally against P388 acute lymphocytic leukemia in mice at a dose 100,50,25,12.5,6.25,3.72,1.56 mg/kg; type: functional

| Structure (SMILES) | T/C (Mus musculus [1]) | T/C (Mus musculus [3]) | also measured |
| --- | --- | --- | --- |
| COc1ccc(OC)c2c1CN(C(C)=O)CC2O (stereo not given) | inactive |  |  |
| CC(=O)[C@]1(O)Cc2c(O)c3c(c(O)c2[C@@H](OC2CC(N)C(O)C(C)O2)C1)C(=O)c1ccccc1C3=O (stereo not given in full) |  |  | T/C (Mus musculus [2]): 160 |
| CC(=O)N1Cc2c(O)c3c(c(O)c2[C@H](OC2C[C@H](NC(=O)C(F)(F)F)[C@H](O)[C@H](C)O2)C1)C(=O)c1ccccc1C3=O (stereo not given in full) |  | 105 |  |
| CC(=O)N1Cc2c(O)c3c(c(O)c2[C@@H](OC2C[C@H](NC(=O)C(F)(F)F)[C@H](O)[C@H](C)O2)C1)C(=O)c1ccccc1C3=O (stereo not given in full) |  | 105 |  |
| COc1ccc(OC)c(CNCC(OC)OC)c1 | inactive |  |  |
